Legend:
Assay type in all cases: in vivo
[1] = tested on: barnyardgrass (Echinochloa crus-galli); test: Test G Pre-Emergence Protocol; conditions: Echinochloa crus-galli, pre-emergence, 312 h, evaluated after 13 days; for pest or weed control at 15.625 g/ha: 15.625 g ai/ha, read-out: Barnyard grass damage rating (100=total damage to plant; 0=no damage to plant); for pest or weed control at 62.5 g/ha: 62.5 g ai/ha, 100=total damage to plant, 0=no damage to plant, read-out: plant damage rating, Barnyardgrass; for pest or weed control at 250 g/ha: 250 g ai/ha, read-out: Barnyardgrass damage rating (100=total damage to plant; 0=no damage to plant)
Summary of the method: (§1)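 Pre-emergence spray, 15.625/62.5/250 g/ha, vehicle acetone:water 50:50 + 0.5% Tween 20, applied 1 d after sowing. Glasshouse 24/16° C, 14 h light, 65% RH, watered twice daily. Visual damage rating at 13 d, 0–100 scale.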

corn (Zea mays) [2] = test: Test G Pre-Emergence Protocol; conditions: Zea mays, pre-emergence, 312 h, evaluated after 13 days; for plant injury at 15.625 g/ha: 15.625 g ai/ha; for plant injury at 15.625 g/ha / plant injury at 250 g/ha: read-out: Corn damage rating (100=total damage to plant; 0=no damage to plant); for plant injury at 62.5 g/ha: 62.5 g ai/ha, 100=total damage to plant, 0=no damage to plant, read-out: plant damage rating, Corn; for plant injury at 250 g/ha: 250 g ai/ha
Summary of the method: as §1

[3] = tested on: giant foxtail (Setaria faberi); test: Test G Pre-Emergence Protocol; conditions: Setaria faberi, pre-emergence, 312 h, evaluated after 13 days; for pest or weed control at 15.625 g/ha: 15.625 g ai/ha; for pest or weed control at 15.625 g/ha / pest or weed control at 250 g/ha: read-out: Foxtail, Giant damage rating (100=total damage to plant; 0=no damage to plant); for pest or weed control at 62.5 g/ha: 62.5 g ai/ha, 100=total damage to plant, 0=no damage to plant, read-out: plant damage rating, Foxtail, Giant; for pest or weed control at 250 g/ha: 250 g ai/ha
Summary of the method: as §1

[4] = tested on: ivy-leaved morning glory (Ipomoea hederacea); test: Test G Pre-Emergence Protocol; conditions: Ipomoea, pre-emergence, 312 h, evaluated after 13 days; for pest or weed control at 15.625 g/ha: 15.625 g ai/ha, read-out: Morning-glory, Ivy-leaved damage rating (100=total damage to plant; 0=no damage to plant); for pest or weed control at 62.5 g/ha: 62.5 g ai/ha, 100=total damage to plant, 0=no damage to plant, read-out: plant damage rating, Morningglory, Ivy-leaved; for pest or weed control at 250 g/ha: 250 g ai/ha, read-out: Morningglory, Ivy-leaved damage rating (100=total damage to plant; 0=no damage to plant)
Summary of the method: as §1

[5] = tested on: redroot pigweed (Amaranthus retroflexus); test: Test G Pre-Emergence Protocol; conditions: Amaranthus retroflexus, pre-emergence, 312 h, evaluated after 13 days; for pest or weed control at 15.625 g/ha: 15.625 g ai/ha; for pest or weed control at 15.625 g/ha / pest or weed control at 250 g/ha: read-out: Pigweed, Redroot damage rating (100=total damage to plant; 0=no damage to plant); for pest or weed control at 62.5 g/ha: 62.5 g ai/ha, 100=total damage to plant, 0=no damage to plant, read-out: plant damage rating, Pigweed, Redroot; for pest or weed control at 250 g/ha: 250 g ai/ha
Summary of the method: as §1

[6] = tested on: velvetleaf (Abutilon theophrasti); test: Test G Pre-Emergence Protocol; conditions: Abutilon theophrasti, pre-emergence, 312 h, evaluated after 13 days; for pest or weed control at 15.625 g/ha: 15.625 g ai/ha; for pest or weed control at 15.625 g/ha / pest or weed control at 250 g/ha: read-out: Velvetleaf damage rating (100=total damage to plant; 0=no damage to plant); for pest or weed control at 62.5 g/ha: 62.5 g ai/ha, 100=total damage to plant, 0=no damage to plant, read-out: plant damage rating, Velvetleaf; for pest or weed control at 250 g/ha: 250 g ai/ha
Summary of the method: as §1

[7] = tested on: barnyardgrass (Echinochloa crus-galli); test: Test G Post-Emergence Protocol; conditions: Echinochloa crus-galli, post-emergence, 312 h; for pest or weed control at 15.625 g/ha: 15.625 g ai/ha, evaluated after 13 days (100=total damage to plant; 0=no damage to plant), read-out: Barnyardgrass damage rating; for pest or weed control at 62.5 g/ha: 62.5 g ai/ha, read-out: Barnyardgrass damage rating (100=total damage to plant; 0=no damage to plant); for pest or weed control at 62.5 g/ha / pest or weed control at 250 g/ha: evaluated after 13 days; for pest or weed control at 250 g/ha: 250 g ai/ha, read-out: damage to plant, Barnyardgrass (100=total damage to plant; 0=no damage to plant)
Summary of the method: (§2)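 Sow in soil; grow 8 d (24/16 °C, 14 h light, 65% humidity); spray 15.625/62.5/250 g/ha in acetone:water 50:50 + 0.5% Tween 20; grow on, water twice daily; score damage 0–100 at 13 d.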

corn (Zea mays) [8] = test: Test G Post-Emergence Protocol; conditions: Zea mays, post-emergence, 312 h; for plant injury at 15.625 g/ha: 15.625 g ai/ha, evaluated after 13 days (100=total damage to plant; 0=no damage to plant), read-out: Corn damage rating; for plant injury at 62.5 g/ha: 62.5 g ai/ha, read-out: Corn damage rating (100=total damage to plant; 0=no damage to plant); for plant injury at 62.5 g/ha / plant injury at 250 g/ha: evaluated after 13 days; for plant injury at 250 g/ha: 250 g ai/ha, read-out: damage to plant, Corn (100=total damage to plant; 0=no damage to plant)
Summary of the method: as §2

[9] = tested on: giant foxtail (Setaria faberi); test: Test G Post-Emergence Protocol; conditions: Setaria faberi, post-emergence, 312 h; for pest or weed control at 15.625 g/ha: 15.625 g ai/ha, evaluated after 13 days (100=total damage to plant; 0=no damage to plant), read-out: Foxtail, Giant damage rating; for pest or weed control at 62.5 g/ha: 62.5 g ai/ha, read-out: Foxtail, Giant damage rating (100=total damage to plant; 0=no damage to plant); for pest or weed control at 62.5 g/ha / pest or weed control at 250 g/ha: evaluated after 13 days; for pest or weed control at 250 g/ha: 250 g ai/ha, read-out: damage to plant, Foxtail, Giant (100=total damage to plant; 0=no damage to plant)
Summary of the method: as §2

[10] = tested on: ivy-leaved morning glory (Ipomoea hederacea); test: Test G Post-Emergence Protocol; conditions: Ipomoea, post-emergence, 312 h; for pest or weed control at 15.625 g/ha: 15.625 g ai/ha, evaluated after 13 days (100=total damage to plant; 0=no damage to plant), read-out: Morningglory, Ivy-leaved damage rating; for pest or weed control at 62.5 g/ha: 62.5 g ai/ha, read-out: Morningglory, Ivy-leaved damage rating (100=total damage to plant; 0=no damage to plant); for pest or weed control at 62.5 g/ha / pest or weed control at 250 g/ha: evaluated after 13 days; for pest or weed control at 250 g/ha: 250 g ai/ha, read-out: damage to plant, Morningglory, Ivy-leaved (100=total damage to plant; 0=no damage to plant)
Summary of the method: as §2

[11] = tested on: redroot pigweed (Amaranthus retroflexus); test: Test G Post-Emergence Protocol; conditions: Amaranthus retroflexus, post-emergence, 312 h; for pest or weed control at 15.625 g/ha: 15.625 g ai/ha, evaluated after 13 days (100=total damage to plant; 0=no damage to plant), read-out: Pigweed, Redroot damage rating; for pest or weed control at 62.5 g/ha: 62.5 g ai/ha, read-out: Pigweed, Redroot damage rating (100=total damage to plant; 0=no damage to plant); for pest or weed control at 62.5 g/ha / pest or weed control at 250 g/ha: evaluated after 13 days; for pest or weed control at 250 g/ha: 250 g ai/ha, read-out: damage to plant, Pigweed, Redroot (100=total damage to plant; 0=no damage to plant)
Summary of the method: as §2

[12] = tested on: velvetleaf (Abutilon theophrasti); test: Test G Post-Emergence Protocol; conditions: Abutilon theophrasti, post-emergence, 312 h; for pest or weed control at 15.625 g/ha: 15.625 g ai/ha, evaluated after 13 days (100=total damage to plant; 0=no damage to plant), read-out: Velvetleaf damage rating; for pest or weed control at 62.5 g/ha: 62.5 g ai/ha, read-out: Velvetleaf damage rating (100=total damage to plant; 0=no damage to plant); for pest or weed control at 62.5 g/ha / pest or weed control at 250 g/ha: evaluated after 13 days; for pest or weed control at 250 g/ha: 250 g ai/ha, read-out: damage to plant, Velvetleaf (100=total damage to plant; 0=no damage to plant)
Summary of the method: as §2

Row | SMILES | pest or weed control at 15.625 g/ha [1] [%] | pest or weed control at 62.5 g/ha [1] [%] | pest or weed control at 250 g/ha [1] [%] | plant injury at 15.625 g/ha (corn (Zea mays) [2]) [%] | plant injury at 62.5 g/ha (corn (Zea mays) [2]) [%] | plant injury at 250 g/ha (corn (Zea mays) [2]) [%] | pest or weed control at 15.625 g/ha [3] [%] | pest or weed control at 62.5 g/ha [3] [%] | pest or weed control at 250 g/ha [3] [%] | pest or weed control at 15.625 g/ha [4] [%] | pest or weed control at 62.5 g/ha [4] [%] | pest or weed control at 250 g/ha [4] [%] | pest or weed control at 15.625 g/ha [5] [%] | pest or weed control at 62.5 g/ha [5] [%] | pest or weed control at 250 g/ha [5] [%] | pest or weed control at 15.625 g/ha [6] [%] | pest or weed control at 62.5 g/ha [6] [%] | pest or weed control at 250 g/ha [6] [%] | pest or weed control at 15.625 g/ha [7] [%] | pest or weed control at 62.5 g/ha [7] [%] | further results
1 | CC(C)c1cc([C@H]2CN(C)C(=O)[C@@H]2C(=O)Nc2cccc(F)c2F)cnn1 (racemic) [Compound 1488] | 0 | 0 | 0 | 0 | 0 | 0 | 0 | 0 | 0 | 0 | 0 | 0 | 0 | 0 | 0 | 0 | 0 | 0 | 0 | 20 | pest or weed control at 250 g/ha [7]: 20%; plant injury at 15.625 g/ha (corn (Zea mays) [8]): 0%; plant injury at 62.5 g/ha (corn (Zea mays) [8]): 10%; plant injury at 250 g/ha (corn (Zea mays) [8]): 0%; pest or weed control at 15.625 g/ha [9]: 0%; pest or weed control at 62.5 g/ha [9]: 0%; pest or weed control at 250 g/ha [9]: 30%; pest or weed control at 15.625 g/ha [10]: 0%; pest or weed control at 62.5 g/ha [10]: 0%; pest or weed control at 250 g/ha [10]: 0%; pest or weed control at 15.625 g/ha [11]: 0%; pest or weed control at 62.5 g/ha [11]: 0%; pest or weed control at 250 g/ha [11]: 0%; pest or weed control at 15.625 g/ha [12]: 0%; pest or weed control at 62.5 g/ha [12]: 0%; pest or weed control at 250 g/ha [12]: 0%
2 | Cc1ccc(NC(=O)[C@@H]2C(=O)N(C)C[C@H]2c2ccc(C(F)(F)F)cc2)nn1 (racemic) [Compound 1543] | 0 | 0 | 0 | 0 | 0 | 0 | 0 | 0 | 0 | 0 | 0 | 0 | 0 | 0 | 0 | 0 | 0 | 0 | 0 | 0 | pest or weed control at 250 g/ha [7]: 0%; plant injury at 15.625 g/ha (corn (Zea mays) [8]): 0%; plant injury at 62.5 g/ha (corn (Zea mays) [8]): 0%; plant injury at 250 g/ha (corn (Zea mays) [8]): 10%; pest or weed control at 15.625 g/ha [9]: 0%; pest or weed control at 62.5 g/ha [9]: 0%; pest or weed control at 250 g/ha [9]: 20%; pest or weed control at 15.625 g/ha [10]: 0%; pest or weed control at 62.5 g/ha [10]: 0%; pest or weed control at 250 g/ha [10]: 30%; pest or weed control at 15.625 g/ha [11]: 0%; pest or weed control at 62.5 g/ha [11]: 0%; pest or weed control at 250 g/ha [11]: 40%; pest or weed control at 15.625 g/ha [12]: 0%; pest or weed control at 62.5 g/ha [12]: 0%; pest or weed control at 250 g/ha [12]: 30%

— patent US12077503B2, “Substituted cyclic amides and their use as herbicides” (FMC CORPORATION, priority 2015, dated 2024)
